# Results: ChEMBL document CHEMBL1144513, “Synthesis and SAR study of novel 7-(pyridinium-3-yl)-carbonyl imidazo[5,1-b]thiazol-2-yl carbapenems” (2007)
# What was measured:
# Assay type in all cases: functional
# Streptococcus pneumoniae = assay: Antibacterial activity against penicillin-resistant Streptococcus pneumoniae KK133 by agar dilution method
# Staphylococcus aureus [1] = assay: Antibacterial activity against methicillin-resistant Staphylococcus aureus M126 by agar dilution method
# Klebsiella pneumoniae = assay: Antibacterial activity against Klebsiella pneumoniae GN69 by agar dilution method
# Haemophilus influenzae = assay: Antibacterial activity against beta-lactamase-negative ampicillin-resistant Haemophilus influenzae 870 by agar dilution method
# Moraxella catarrhalis = assay: Antibacterial activity against Moraxella catarrhalis W-0500 by agar dilution method
# Staphylococcus aureus [2] = assay: Antibacterial activity against Staphylococcus aureus 209P JC1 by agar dilution method
# Escherichia coli = assay: Antibacterial activity against Escherichia coli NIHJ JC2 by agar dilution method
# Staphylococcus aureus [3] = assay: Antibacterial activity against carbapenem and methicillin-resistant Staphylococcus aureus M126HR by agar dilution method
Compound,MIC (Streptococcus pneumoniae) [µg/mL],MIC (Staphylococcus aureus [1]) [µg/mL],MIC (Klebsiella pneumoniae) [µg/mL],MIC (Haemophilus influenzae) [µg/mL],MIC (Moraxella catarrhalis) [µg/mL],MIC (Staphylococcus aureus [2]) [µg/mL],MIC (Escherichia coli) [µg/mL],MIC (Staphylococcus aureus [3]) [µg/mL]
C[C@@H](O)[C@H]1C(=O)N2C(C(=O)[O-])=C(c3cn4cnc(C(=O)c5ccc[n+](CC(N)=O)c5)c4s3)[C@H](C)[C@H]12,0.031,0.5,0.063,0.063,0.016,≤ 0.008,0.031,2
C[C@@H](O)[C@H]1C(=O)N2C(C(=O)[O-])=C(c3cn4cnc(C(=O)c5ccc[n+](CCS(C)(=O)=O)c5)c4s3)[C@H](C)[C@H]12,0.031,1,0.5,0.063,0.016,≤ 0.008,0.5,4
C[C@@H](O)[C@H]1C(=O)N2C(C(=O)O)=C(c3cn4cnc(C(=O)[C@@H]5C[C@@H](O)CN5)c4s3)[C@H](C)[C@H]12,0.063,1,0.125,0.125,0.031,0.016,0.063,4
C[C@@H](O)[C@H]1C(=O)N2C(C(=O)O)=C(c3cn4cnc(C(=O)c5cnc6ccccc6c5)c4s3)[C@H](C)[C@H]12,0.031,0.016,8,0.125,0.031,≤ 0.008,4,2
C[C@@H](O)[C@H]1C(=O)N2C(C(=O)O)=C(c3cn4cnc(C(=O)c5cccs5)c4s3)[C@H](C)[C@H]12,0.125,0.031,4,0.125,0.016,≤ 0.008,2,4
CCc1nc(C(=O)c2ccc[n+](CC(N)=O)c2)c2sc(C3=C(C(=O)[O-])N4C(=O)[C@H]([C@@H](C)O)[C@H]4[C@H]3C)cn12,0.031,1,4,0.063,0.031,0.016,2,4
C[C@@H](O)[C@H]1C(=O)N2C(C(=O)O)=C(c3cn4cnc(C(=O)c5ccncc5)c4s3)[C@H](C)[C@H]12,0.031,0.063,2,0.031,0.031,≤ 0.008,2,4
C[C@@H](O)[C@H]1C(=O)N2C(C(=O)[O-])=C(c3cn4cnc(C(=O)c5ccc[n+](CCNS(N)(=O)=O)c5)c4s3)[C@H](C)[C@H]12,0.031,1,0.063,0.063,0.016,≤ 0.008,0.031,2
CN[C@H](CC(C)C)C(=O)N[C@H]1C(=O)N[C@@H](CC(N)=O)C(=O)N[C@H]2C(=O)N[C@H]3C(=O)N[C@H](C(=O)N[C@H](C(=O)O)c4cc(O)cc(O)c4-c4cc3ccc4O)[C@H](O)c3ccc(c(Cl)c3)Oc3cc2cc(c3O[C@@H]2O[C@H](CO)[C@@H](O)[C@H](O)[C@H]2O[C@H]2C[C@](C)(N)[C@H](O)[C@H](C)O2)Oc2ccc(cc2Cl)[C@H]1O [VANCOMYCIN],0.5,–,> 128,> 128,64,–,> 128,–
Cc1nc(C(=O)c2ccc[n+](CC(N)=O)c2)c2sc(C3=C(C(=O)[O-])N4C(=O)[C@H]([C@@H](C)O)[C@H]4[C@H]3C)cn12,0.031,1,0.5,0.063,0.008,0.016,0.25,4
CSc1nc(C(=O)c2ccc[n+](CC(N)=O)c2)c2sc(C3=C(C(=O)[O-])N4C(=O)[C@H]([C@@H](C)O)[C@H]4[C@H]3C)cn12,0.016,0.5,4,0.031,0.016,0.008,4,1
C[C@@H](O)[C@H]1C(=O)N2C(C(=O)[O-])=C(c3cn4cnc(C(=O)c5ccc[n+](CC(=O)C(F)(F)F)c5)c4s3)[C@H](C)[C@H]12,0.063,1,0.25,0.063,0.031,0.016,0.125,4
C[C@@H](O)[C@H]1C(=O)N2C(C(=O)[O-])=C(c3cn4cnc(C(=O)c5ccc[n+](C)c5)c4s3)[C@H](C)[C@H]12,0.031,1,0.063,0.063,0.031,≤ 0.008,0.063,4
COCc1nc(C(=O)c2ccc[n+](CC(N)=O)c2)c2sc(C3=C(C(=O)[O-])N4C(=O)[C@H]([C@@H](C)O)[C@H]4[C@H]3C)cn12,0.063,2,4,0.063,0.031,0.031,8,4
